# Assay results as given in US11179501B2, “Bone morphogenetic protein pathway activation, compositions for ossification, and methods related thereto” (Emory University, priority 2011, dated 2021).
# Experiments:
# [1] = test system: C2C12 cells; experiment: BMP-Noggin competitive alkaline phosphatase (ALP) assay; format: cell-based, Mouse; details: BMP-2 90-100 ng/ml plus noggin 100-120 ng/ml, 72 hours, fold over BMP alone control
# Description: (§1) Their activity was evaluated by determining the potentiation of alkaline phosphatase activity in sub-optimal doses of BMP in the presence or absence of exogenously added noggin.
# Mouse C2C12 cells and Dulbecco's modified Eagle's medium (DMEM) were purchased from ATCC (Manassas, Va.). The non-heat inactivated fetal bovine serum (FBS) was purchased from HyClone Laboratories, Inc. (Logan, Utah). The C2C12 cells at passages 5 to 10 were subcultured in T-75 cm^2 flasks in DMEM supplemented with 10% FBS at 37° C. in 5% CO2 with humidification. When the flasks reached 80% confluence, the cells were trypsinized and seeded in triplicate.
# The C2C12 cells were plated at 200,000 cells/well in 6-well plates and grown overnight in DMEM containing 10% FBS. On day 2, the culture medium was replaced with DMEM containing 2% FBS and the cells were treated with 90-100 ng/ml of BMP-2 (as noted in each experiment), various concentrations of compound, and 100-120 ng/ml of noggin (as noted in each experiment) for 72 hours. The cells were washed with phosphate-buffered saline (PBS) and lysed by addition of lysis buffer (10 mM Tris-HCl pH 8.0, 1 mM MgCl2 and 1.0% Triton X-100). The cell lysates were centrifuged for 5 minutes at 13,000×g. The supernatant was removed and the aliquots were assayed for ALP activity and protein amount. The ALP activity was measured in triplicate using an ALP assay kit (Sigma-Aldrich, St. Louis, Mo.) in microtiter plates. The protein amount was determined with Bio-Rad protein assay reagent (Bio-Rad, Hercules, Calif.) using bovine serum albumin (BSA) as a standard. The ALP activity (nmoles of p-nitrophenol per ml) was normalized to the protein amount (nmoles of p-nitrophenol per μg).
# [2] = test system: C2C12 cells; experiment: Alkaline phosphatase (ALP) assay: potentiation of BMP-2-induced ALP activity; details: for Fold increase in BMP-Potentiated ALP activity over BMP control: C2C12 cells, 50 ng/ml BMP-2, 72 hours
# Description: as §1
# The BMP-potentiating activities of compounds may be evaluated by monitoring several markers of the osteoblastic phenotype corresponding to various time points during phenotype differentiation of C2C12 cells towards terminally differentiated osteoblasts.
# The C2C12 cells at passages 5 to 10 were subcultured in T-75 cm^2 flasks in DMEM supplemented with 10% FBS at 37° C. in 5% CO2 with humidification. When the flasks reached 80% confluence, the cells were trypsinized and seeded in triplicate.
# The C2C12 cells were plated at 200,000 cells/well in 6-well plates and grown overnight in DMEM containing 10% FBS. On day 2, the culture medium was replaced with DMEM containing 2% FBS and the cells were treated with various concentrations of compound for 24 hours. On day 3, the culture medium was replaced with DMEM containing 2% FBS and the cells were treated with 50 ng/ml of BMP-2 and various concentrations of compound for 72 hours. The cells were washed with phosphate-buffered saline (PBS) and lysed by addition of lysis buffer (10 mM Tris-HCl pH 8.0, 1 mM MgCl2 and 1.0% Triton X-100). The cell lysates were centrifuged for 5 minutes at 13,000×g. The supernatant was removed and the aliquots were assayed for ALP activity and protein amount. The ALP activity was measured in triplicate using an ALP assay kit (Sigma-Aldrich, St. Louis, Mo.) in microtiter plates. The protein amount was determined with Bio-Rad protein assay reagent (Bio-Rad, Hercules, Calif.) using bovine serum albumin (BSA) as a standard. The ALP activity (nmoles of p-nitrophenol per ml) was normalized to the protein amount (nmoles of p-nitrophenol per μg).
# [3] = test system: Sprague Dawley rats; experiment: Collagen disc implantation with macrolides in rat ectopic model; format: in vivo; parameters: Ave. (Xray score): scale not given here; details: for Ave. (Xray score) / Results (bone, animals with bone of 4): 100 ul, collagen, no BMP-2, 4 weeks
# Description: Sprague Dawley rats about 5-6 weeks of age were chest implanted with a collagen disc (diameter of 1.0 cm and height of 2.0 mm; total volume of 150 cubic millimeters) and doses of macrolides in the absence of BMP-2. After 4 weeks the rats were sacrificed and evaluated for bone growth. […] In certain embodiments, the disclosure contemplates local bone formation for fracture repair, segmental bone defects, spine fusion, bone grafting, and regional bone enhancement for osteopenic bones before they fracture (e.g. hip, vertebral body, etc) by deliver locally to induce local bone formation.
compound,measurement,setting,value
"CC1=C(/C=C/C(C)=C/C=C/C(C)=C/C(=O)O)C(C)(C)CCC1 [Retinoic acid, (2E,4E,6E,8E)-3,7-dimethyl-9-(2,6,6-trimethylcyclohexen-1-yl)nona-2,4,6,8-tetraenoic acid]",Fold increase in Noggin-Inhibition ALP Assay over BMP alone control,[1],2
same,Fold increase in BMP-Potentiated ALP activity over BMP control,[2],11
"C=CCC1C=C(C)CC(C)CC(OC)C2OC(O)(C(=O)C(=O)N3CCCCC3C(=O)OC(/C(C)=C/C3CCC(O)C(OC)C3)C(C)C(O)CC1=O)C(C)CC2OC (centres unmarked) [Tacrolimus, 5,6,8,11,12,13,14,15, 16,17,18,19,24,25,26,26a-hexadecahydro-5,19-dihydroxy-3-[(1E)-2-[4-hydroxy-3-methoxycyclohexyl]-1-methylethenyl]-14,16-dimethoxy-4,10,12,18-tetramethyl-8-(2-propen-1-yl)-15,19-epoxy-3H-pyrido[2,1-c][1,4]oxaazacyclotricosine-1,7,20,21(4H,23H)-tetrone]",Fold increase in Noggin-Inhibition ALP Assay over BMP alone control,[1],5
same,Ave. (Xray score),[3]; dose 10 mM,0
same,"Results (bone, animals with bone of 4)",[3]; dose 10 mM,No bone (0 of 4)
same,Ave. (Xray score),[3]; dose 15 mM,0.5
same,"Results (bone, animals with bone of 4)",[3]; dose 15 mM,Bone (1 of 4)
same,Ave. (Xray score),[3]; dose 20 mM,3.25
same,"Results (bone, animals with bone of 4)",[3]; dose 20 mM,Bone (3 of 4)
same,Ave. (Xray score),[3]; dose 25 mM,4.25
same,"Results (bone, animals with bone of 4)",[3]; dose 25 mM,Bone (4 of 4)
same,Ave. (Xray score),[3]; dose 30 mM,2.5
same,"Results (bone, animals with bone of 4)",[3]; dose 30 mM,Bone (3 of 4)
same,Ave. (Xray score),[3]; dose 35 mM,4
same,"Results (bone, animals with bone of 4)",[3]; dose 35 mM,Bone (4 of 4)
same,De novo bone formation,"[3]; local, collagen disc, chest implant, absence of BMP-2, 4 weeks",De novo bone formation is demonstrated locally
same,Fold increase in BMP-Potentiated ALP activity over BMP control,[2],7
"CCC(=O)O[C@]1(C(=O)SCF)[C@H](C)C[C@H]2[C@@H]3C[C@H](F)C4=CC(=O)C=C[C@]4(C)[C@@]3(F)[C@@H](O)C[C@@]21C [Fluticasone Propionate, 6,9-difluoro-11-hydroxy-16-methyl-3-oxo-17-(1-oxopropoxy)-androsta-1,4-diene-17-carbothioic acid S-(fluoromethyl) ester]",Fold increase in Noggin-Inhibition ALP Assay over BMP alone control,[1],3
same,Fold increase in BMP-Potentiated ALP activity over BMP control,[2],6
"Clc1ccccc1C(c1ccccc1)(c1ccccc1)n1ccnc1 [Clotrimazole, 1-[(2-chlorophenyl)diphenylmethyl]-1H-imidazole]",Fold increase in Noggin-Inhibition ALP Assay over BMP alone control,[1],4
same,Fold increase in BMP-Potentiated ALP activity over BMP control,[2],7
same,BMP-induced ALP activity,"[2]; nanomolar concentrations, FIG. 5",dose dependent increase
"CC1=C(/C=C/C(C)=C/C=C/C(C)=C\C(=O)O)C(C)(C)CCC1 [Isotretinoin, isotretinoin]",Fold increase in Noggin-Inhibition ALP Assay over BMP alone control,[1],3
same,Fold increase in BMP-Potentiated ALP activity over BMP control,[2],30
"CCCc1nc2c(C)cc(-c3nc4ccccc4n3C)cc2n1Cc1ccc(-c2ccccc2C(=O)O)cc1 [Telmisartan, 4′-((1,7′-dimethyl-2′-propyl-1H,3′H-[2,5′-bibenzo[d]imidazol]-3′-yl)methyl)[1,1′-biphenyl]-2-carboxylic acid]",Fold increase in Noggin-Inhibition ALP Assay over BMP alone control,[1],3
same,Fold increase in BMP-Potentiated ALP activity over BMP control,[2],3
